# Columns and labels:
# [1] = system: soft wheat (Triticum aestivum L.) variety Favorite; assay: Growth of soft wheat in soil artificially contaminated with imazethapyr (Example 2); assay type: in vivo; settings: imazethapyr 10 mg/kg soil (Viaduk VK), without bacterization, 25 days
# Procedure: (§1) The soil in the experiment was artificially polluted with the herbicide preparation “Viaduk VK” (Active substance: imazethapyr, 100 g/L), introducing the drug with water for irrigation at a dosage, according to the instructions, to a final concentration of imazethapyr 10 mg/kg of soil. The soil was moistened to 50% of the total moisture capacity. Seeds of soft wheat (Triticum aestivum L.) varieties “Favorite” 20 pcs. were sown in 1-liter pots containing 1 kg of soil. […]
# (§2) The experiment was carried out under controlled conditions: at a temperature of 24/20° C., a light regime of 14/10 h (illumination—8000 lux), day/night, respectively, maintaining soil moisture at a level of 50% of the total moisture capacity by irrigation with settled tap water, the need for which was determined by weighing vessels. […] They were dried with filter paper, the length of roots and shoots was measured, they were separated and dried to constant weight at 65° C. […] The content of imazethapyr in soil was determined as described previously (Assalin M. R., Queiroz S. C. N., Ferracini V. L., Oliveira T., Vilhena E., Mattos M. L. T. A method for determination of imazapic and imazethapyr residues in soil using an ultrasonic assisted extraction and LC-MS/MS//Bull. Environ. Contam. Toxicol.—2014.—Vol. 93.—P. 360-364) using HPLC. […]
# [2] = Imazethapyr content in soil in laboratory experiment (Example 2, HPLC); settings: end of experiment (47 days), original contaminated soil 6.17
# Procedure: as §1, §2
compound,measurement,setting,value
CCc1cnc(C2=NC(C)(C(C)C)C(=O)N2)c(C(=O)O)c1 (stereo not drawn) [imazethapyr],growth of wheat plants in freshly contaminated soil,[1],strong inhibition
same,Imazethapyr content,[2]; soil with wheat,5.90 mg/kg
same,Imazethapyr content,[2]; soil without plants,5.87 mg/kg

# Source: patent US20230416672A1, “Rhodococcus qingshengii bacterial strain that degrades imazethapyr and stimulates crop growth” (priority 2020, published 2023)
